Measured values published in PubChem BioAssay AID330 (DTP/NCI, 2004).
Values joined by “and” are separate entries in the source; they are usually repeats but may differ in a detail not shown here. Equal entries are not always repeated. Inconclusive results and toxic doses are left out. The calls were made as follows: active = survival T/C of 150% or more; inactive = T/C below 125% in these data. Peptide text beside a SMILES is read from it.

System: P388 leukemia ip, CD2F1 mice, survival T/C
Experiment: NCI In Vivo Anticancer Drug Screen. Data for tumor model P388 Leukemia (intraperitoneal) in CD2F1 (CDF1) mice
Conditions: endpoint: median survival time, higher = longer survival
Method in brief: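 Mice carrying the transplanted tumor received test compound or vehicle. Survival was recorded in each group, and the value is the treated-group measurement divided by that of the vehicle-treated control group.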

[1] = dose: 50.0 mg/kg/injection, schedule: Q01DX005 (ip), vehicle: Klucel (hydroxypropylcellulose) (HPC)
[2] = dose: 100.0 mg/kg/injection, schedule: Q01DX005 (ip), vehicle: Klucel (hydroxypropylcellulose) (HPC)
[3] = dose: 200.0 mg/kg/injection, schedule: Q01DX005 (ip), vehicle: Klucel (hydroxypropylcellulose) (HPC)
[4] = dose: 25.0 mg/kg/injection, schedule: Q04DX003 (ip), vehicle: saline
[5] = dose: 50.0 mg/kg/injection, schedule: Q04DX003 (ip), vehicle: saline
[6] = dose: 50.0 mg/kg/injection, schedule: Q04DX003 (ip), vehicle: suspension in saline
[7] = dose: 50.0 mg/kg/injection, schedule: Q01DX009 (ip), vehicle: saline
[8] = dose: 100.0 mg/kg/injection, schedule: Q01DX009 (ip), vehicle: saline
[9] = dose: 200.0 mg/kg/injection, schedule: Q01DX009 (ip), vehicle: saline
[10] = dose: 60.0 mg/kg/injection, schedule: Q01DX005 (ip), vehicle: saline with Tween-80
[11] = dose: 120.0 mg/kg/injection, schedule: Q01DX005 (ip), vehicle: saline with Tween-80
[12] = dose: 50.0 mg/kg/injection, schedule: Q01DX009 (ip), vehicle: saline with Tween-80

Measured: T/C

Cc1nc2ccc(Br)cc2c(=O)n1-c1ccc(-c2n[nH]c(=S)n2-c2ccccc2)cc1
inactive: [1] 102 % of control | [2] 104 % of control | [3] 104 % of control

CCn1c2ccccc2c2ccc(N=Nc3ccccc3)cc21
inactive: dose: 100.0 mg/kg/injection, schedule: Q04DX003 (ip), vehicle: Klucel (hydroxypropylcellulose) (HPC) 100 % of control | dose: 200.0 mg/kg/injection, schedule: Q04DX003 (ip), vehicle: Klucel (hydroxypropylcellulose) (HPC) 100 % of control | dose: 400.0 mg/kg/injection, schedule: Q04DX003 (ip), vehicle: Klucel (hydroxypropylcellulose) (HPC) 105 % of control

Cc1ccc(O)c(C(=NCCN=C(c2ccccc2)c2cc(C)ccc2O)c2ccccc2)c1
inactive: [1] 103 % of control and 106 % of control and 98 % of control | [2] 100 % of control and 104 % of control and 118 % of control | [3] 100 % of control and 101 % of control and 121 % of control | dose: 400.0 mg/kg/injection, schedule: Q01DX005 (ip), vehicle: Klucel (hydroxypropylcellulose) (HPC) 96 % of control

CSc1nc2cc(Cl)ccc2c2c1C=NCCN2
inactive: dose: 12.5 mg/kg/injection, schedule: Q04DX003 (ip), vehicle: saline 97 % of control | [4] 96 % of control | [5] 103 % of control | [6] 103 % of control

O=C(O)CCCCCCC(=O)CCl
inactive: [4] 110 % of control | [5] 110 % of control | [6] 119 % of control | dose: 100.0 mg/kg/injection, schedule: Q04DX003 (ip), vehicle: saline 121 % of control | dose: 100.0 mg/kg/injection, schedule: Q04DX003 (ip), vehicle: suspension in saline 116 % of control

NC(Cc1ccccc1)C(=O)NC(Cc1ccccc1)C(=O)O (stereo not drawn) (H-Phe-Phe-OH; configuration not given here)
inactive: [7] 96 % of control | [8] 99 % of control | [9] 94 % of control

O=C(O)c1cc(-c2ccc(Cl)cc2)nc2c1ccc1ccccc12
inactive: dose: 25.0 mg/kg/injection, schedule: Q01DX005 (ip), vehicle: Klucel (hydroxypropylcellulose) (HPC) 100 % of control | [1] 100 % of control | [2] 100 % of control

COC1=C(NC(C)=O)C(=O)c2nc(-c3nc(C(=O)O)c(C)c(-c4ccc(OC)c(OC)c4O)c3N)ccc2C1=O
inactive: dose: 12.5 mg/kg/injection, schedule: Q01DX009 (ip), vehicle: distilled water + Tween-80 119 % of control | dose: 25.0 mg/kg/injection, schedule: Q01DX009 (ip), vehicle: distilled water + Tween-80 118 % of control | dose: 50.0 mg/kg/injection, schedule: Q01DX009 (ip), vehicle: distilled water + Tween-80 119 % of control | dose: 100.0 mg/kg/injection, schedule: Q01DX009 (ip), vehicle: distilled water + Tween-80 119 % of control

COC(=O)c1nc(N)nc(C(=O)OC)c1C(=O)c1ccc(C)cc1
inactive: [10] 98 % of control | [11] 100 % of control

O=c1[nH]cc(F)c(=O)[nH]1.[Tl]
inactive: dose: 0.78 mg/kg/injection, schedule: Q01DX009 (ip), vehicle: Klucel (hydroxypropylcellulose) (HPC) 99 % of control | dose: 1.56 mg/kg/injection, schedule: Q01DX009 (ip), vehicle: Klucel (hydroxypropylcellulose) (HPC) 103 % of control | dose: 3.13 mg/kg/injection, schedule: Q01DX009 (ip), vehicle: Klucel (hydroxypropylcellulose) (HPC) 115 % of control

O=C(C#Cc1ccccc1)c1ccccc1
inactive: dose: 12.5 mg/kg/injection, schedule: Q01DX009 (ip), vehicle: saline with Tween-80 122 % of control and 124 % of control | dose: 25.0 mg/kg/injection, schedule: Q01DX009 (ip), vehicle: saline with Tween-80 98 % of control | [12] 121 % of control

Cc1csc(NC(=S)N(C)C)n1
inactive: dose: 100.0 mg/kg/injection, schedule: Q04DX002 (ip), vehicle: saline with Tween-80 103 % of control | dose: 200.0 mg/kg/injection, schedule: Q04DX002 (ip), vehicle: saline with Tween-80 101 % of control | dose: 400.0 mg/kg/injection, schedule: Q04DX002 (ip), vehicle: saline with Tween-80 101 % of control

S=C1SCN(CCc2c[nH]c3ccccc23)CN1CCc1c[nH]c2ccccc12
inactive: dose: 50.0 mg/kg/injection, schedule: Q01DX005 (ip), vehicle: saline with Tween-80 92 % of control | dose: 100.0 mg/kg/injection, schedule: Q01DX005 (ip), vehicle: saline with Tween-80 90 % of control | dose: 200.0 mg/kg/injection, schedule: Q01DX005 (ip), vehicle: saline with Tween-80 92 % of control

O=C1CCCCCCCCC1O (configuration not stated)
inactive: dose: 100.0 mg/kg/injection, schedule: Q04DX003 (ip), vehicle: saline with Tween-80 106 % of control | dose: 200.0 mg/kg/injection, schedule: Q04DX003 (ip), vehicle: saline with Tween-80 108 % of control | dose: 400.0 mg/kg/injection, schedule: Q04DX003 (ip), vehicle: saline with Tween-80 110 % of control

O=C1c2ccccc2C(O)(C#Cc2ccccc2)c2c1oc1ccc3ccccc3c21 (configuration not stated)
inactive: [12] 100 % of control | dose: 100.0 mg/kg/injection, schedule: Q01DX009 (ip), vehicle: saline with Tween-80 92 % of control | dose: 200.0 mg/kg/injection, schedule: Q01DX009 (ip), vehicle: saline with Tween-80 87 % of control

O=[N+]([O-])c1cc2no[n+]([O-])c2cc1N1CCCCC1
inactive: dose: 3.75 mg/kg/injection, schedule: Q01DX009 (ip), vehicle: saline 97 % of control | dose: 3.75 mg/kg/injection, schedule: Q01DX009 (ip), vehicle: suspension in saline 94 % of control | dose: 7.5 mg/kg/injection, schedule: Q01DX009 (ip), vehicle: saline 114 % of control | dose: 7.5 mg/kg/injection, schedule: Q01DX009 (ip), vehicle: suspension in saline 103 % of control | dose: 15.0 mg/kg/injection, schedule: Q01DX009 (ip), vehicle: saline 101 % of control | dose: 15.0 mg/kg/injection, schedule: Q01DX009 (ip), vehicle: suspension in saline 103 % of control | dose: 30.0 mg/kg/injection, schedule: Q01DX009 (ip), vehicle: saline 108 % of control | dose: 30.0 mg/kg/injection, schedule: Q01DX009 (ip), vehicle: suspension in saline 122 % of control

CC(C)c1nc2c(c(=O)o1)CCS2
inactive: [1] 100 % of control | [2] 98 % of control | [3] 98 % of control

S=c1nn[nH]n1-c1ccccc1.[Cd]
inactive: dose: 3.13 mg/kg/injection, schedule: Q01DX009 (ip), vehicle: saline with Tween-80 98 % of control | dose: 6.25 mg/kg/injection, schedule: Q01DX009 (ip), vehicle: saline with Tween-80 94 % of control

Cc1ccc(S(=O)(=O)N2CCCCN(S(=O)(=O)c3ccc(C)cc3)COC2)cc1
inactive: [1] 101 % of control | [2] 101 % of control | [3] 102 % of control

O=C1c2ccccc2CCC1Br (configuration not stated)
inactive: dose: 1.56 mg/kg/injection, schedule: Q01DX009 (ip), vehicle: DMSO 113 % of control | dose: 6.25 mg/kg/injection, schedule: Q01DX009 (ip), vehicle: DMSO 99 % of control and 103 % of control | dose: 12.5 mg/kg/injection, schedule: Q01DX009 (ip), vehicle: DMSO 102 % of control

CC1=CC2=C(C(N)=O)C(=O)OC2(C)C(c2ccccc2)C1 (configuration not stated)
inactive: [10] 101 % of control | [11] 101 % of control | dose: 240.0 mg/kg/injection, schedule: Q01DX005 (ip), vehicle: saline with Tween-80 100 % of control

Cc1cnc(Sc2c([N+](=O)[O-])ncn2C)nc1
inactive: [7] 109 % of control | [8] 104 % of control | [9] 109 % of control

CNC(=S)NNc1nnc(NNC(=S)NC)c2ccccc12
inactive: [7] 94 % of control | [8] 97 % of control | [9] 102 % of control
